Results as given in US8637550B2, “Heteroaryl diamide compounds useful as MMP-13 inhibitors” (Boehringer Ingelheim International GmbH, priority 2008, dated 2014).

molecular target: MMP-13 (Homo sapiens, UniProt P45452); assay: EnzoLyte 520 Generic MMP Assay Kit, 5-FAM/QXL520 FRET peptide substrate; assay type: biochemical
From the text: The EnzoLyte™ 520 Generic MMP Assay Kit (AnaSpec Inc.) can detect the activity of several MMPs including MMP-1, 2, 3, 7, 8, 9, 13, and 14. This kit uses a 5-FAM/QXL™520 fluorescence resonance energy transfer (FRET) peptide as an MMP substrate.

Row | SMILES | IC50 [µM]
1 | CNC(=O)[C@@H](NC(=O)c1ccc(-c2cccc(CNC(=O)c3ccn(C(F)F)n3)c2)o1)C(C)C [1-Difluoromethyl-1H-pyrazole-3-carboxylic acid 3-[5-((S)-2-methyl-1-methylcarbamoyl-propylcarbamoyl)-furan-2-yl]-benzylamide] | 0.014
2 | CNC(=O)[C@@H](NC(=O)c1ccc(-c2cccc(CNC(=O)c3cc(C(F)(F)F)n(C)n3)c2)o1)C(C)C [1-Methyl-5-trifluoromethyl-1H-pyrazole-3-carboxylic acid 3-[5-((S)-2-methyl-1-methylcarbamoyl-propylcarbamoyl)-furan-2-yl]-benzylamide] | 0.039
3 | CNC(=O)[C@@H](NC(=O)c1ccc(-c2cccc(CNC(=O)C3CCCCN3C)c2)o1)C(C)C (stereo partly drawn) [1-Methyl-N-[3-(5-{[(1S)-2-methyl-1-(methylcarbamoyl)propyl]carbamoyl}-2-furyl)benzyl]piperidine-2-carboxamide] | 0.3
4 | CNC(=O)[C@@H](NC(=O)c1ccc(-c2cccc(CNC(=O)C3CCCN(C)C3)c2)o1)C(C)C (stereo partly drawn) [1-Methyl-N-[3-(5-{[(1S)-2-methyl-1-(methylcarbamoyl)propyl]carbamoyl}-2-furyl)benzyl]piperidine-3-carboxamide] | 0.215
5 | CNC(=O)[C@@H](NC(=O)c1ccc(-c2cccc(CNC(=O)[C@@H]3CCCN3C)c2)o1)C(C)C [1-methyl-N-[3-(5-{[(1S)-2-methyl-1-(methylcarbamoyl)propyl]carbamoyl}-2-furyl)benzyl]-L-prolinamide] | 0.38
6 | CC[C@H](C)[C@H](NC(=O)c1csc(-c2ccc(Cl)cc2)n1)C(=O)NC [2-(4-Chloro-phenyl)-thiazole-4-carboxylic acid ((1S,2S)-2-methyl-1-methylcarbamoyl-butyl)-amide] | 0.38
7 | CNC(=O)[C@@H](NC(=O)c1csc(-c2ccc(Cl)cc2)n1)C1CCCCC1 [2-(4-Chlorophenyl)-N-[(1S)-1-cyclohexyl-2-(methylamino)-2-oxoethyl]-1,3-thiazole-4-carboxamide] | 0.47
8 | CNC(=O)[C@@H](NC(=O)c1ccc(-c2cccc(CNC(=O)c3ccnc(Cl)n3)c2)o1)C(C)C [2-Chloro-N-[3-(5-{[(1S)-2-methyl-1-(methylcarbamoyl)propyl]carbamoyl}-2-furyl)benzyl]pyrimidine-4-carboxamide] | 0.009
9 | CNC(=O)[C@@H](NC(=O)c1ccc(-c2cccc(CNC(=O)OCC(C)C)c2)o1)C1CCCCC1 [2-Methylpropyl [3-(5-{[(1S)-1-cyclohexyl-2-(methylamino)-2-oxoethyl]carbamoyl}furan-2-yl)benzyl]carbamate] | 0.24
10 | CNC(=O)[C@@H](NC(=O)c1ccc(-c2cccc(CNC(=O)c3cc(C)no3)c2)o1)C(C)C [3-Methyl-isoxazole-5-carboxylic acid 3-[5-((S)-2-methyl-1-methylcarbamoyl-propylcarbamoyl)-furan-2-yl]-benzylamide] | 0.28
11 | CNC(=O)[C@@H](NC(=O)c1ccc(-c2cccc(CNC(=O)c3nc(C(F)(F)F)cs3)c2)o1)C(C)C [4-Trifluoromethyl-thiazole-2-carboxylic acid 3-[5-((S)-2-methyl-1-methylcarbamoyl-propylcarbamoyl)-furan-2-yl]-benzylamide] | 0.006
12 | CNC(=O)[C@@H](NC(=O)c1ccc(-c2ccc(-c3ccnc(C)c3)cn2)o1)C(C)C [5-(2′-Methyl-[3,4′]bipyridinyl-6-yl)-furan-2-carboxylic acid ((S)-2-methyl-1-methylcarbamoyl-propyl)-amide] | 0.11
13 | CNC(=O)[C@@H](NC(=O)c1ccc(-c2cccc(CNC(=O)NC(C)(C)C)c2)o1)C1CCCCC1 [5-(3-{[(tert-Butylcarbamoyl)amino]methyl}phenyl)-N-[(1S)-1-cyclohexyl-2-(methylamino)-2-oxoethyl]furan-2-carboxamide] | 0.105
14 | CNC(=O)[C@@H](NC(=O)c1ccc(-c2ccc(Br)cc2)o1)C1CCCCC1 [5-(4-Bromophenyl)-N-[(1S)-1-cyclohexyl-2-(methylamino)-2-oxoethyl]furan-2-carboxamide] | 0.395
